These results are taken from publication PMC9331314, “Synthesis and Antiviral Properties of Camphor-Derived Iminothiazolidine-4-Ones and 2,3-Dihydrothiazoles” (Molecules, 2022).

Broadly, the IC50 is the concentration at which inhibition is half-maximal.

The test system of data set [1] is vaccinia virus (strain Copenhagen). Nature of the data set: microbe, parasite or virus in culture. Conditions: Orthopoxvirus vaccinia, Vero, 96 h.
Data set [2] deals with Marburg pseudovirus (GP MARV). Nature of the data set: microbe, parasite or virus in culture. The conditions noted are these: 24 h.
Data set [3] is described as follows: in vitro. Conditions: human.
A short description of data set [4]: in vitro. Conditions: African green monkey.
Data set [5] relates to Marburg pseudovirus (GP MARV).
Data set [6] relates to vaccinia virus (strain Copenhagen).

Read-outs that look alike come from different tables or passages of the source.

Take `C=CCn1c(-c2ccc(C)cc2)cs/c1=N/N=C1\C[C@H]2CC[C@]1(C)C2(C)C` [Compound 6b, (E)-3-allyl-4-p-tolyl-2-((E)-((1R,4R)-1,7,7-trimethylbicyclo[2.2.1]heptan-2-ylidene)hydrazono)-2,3-dihydrothiazole]: the IC50 in data set [1] amounted to 4 ± 0.6 µM; in data set [2] it was 5.3 ± 2.6 µM. In addition, the CC50 in data set [3] is 39.5 ± 4.8 µM; in data set [4], 12 ± 2.1 µM. For the same compound, the entries for the “SI (CC50/IC50)” value in data set [5] and in data set [6] were 7 and 3, respectively.

As for `C=CCNC(=S)N/N=C1\C[C@@H]2CC[C@@]1(C)C2(C)C` [2′b, (E)-N-allyl-2-((1S,4S)-1,7,7-trimethylbicyclo[2.2.1]heptan-2-ylidene)hydrazinecarbothioamide], the IC50 in data set [1] was 12 ± 2.9 µM; in data set [2], 3.8 ± 1.9 µM. For the same compound, the CC50 in data set [3] stood at 56.5 ± 8.2 µM; in data set [4], 35 ± 4.6 µM. Besides, the “SI (CC50/IC50)” value in data set [5] came to 15; in data set [6] it was 3.

In the case of `CCN1C(=O)C(C)(C)SC1=NN=C1CC2CCC1(C)C2(C)C` [Compound 4c, ((Z)-3-ethyl-5,5-dimethyl-2-((E)-((1R,4R)-1,7,7-trimethylbicyclo[2.2.1]heptan-2-ylidene)hydrazono)thiazolidin-4-one], the IC50 in data set [2] was found to be 171 ± 46.7 µM. The figures for the CC50 in data set [3] and in data set [4] were 778 ± 82.8 µM and 290 ± 34.9 µM, respectively. For the same compound, the “SI (CC50/IC50)” value in data set [5] turned out to be 5.

Compound `Cc1ccc(-c2cs/c(=N/N=C3\C[C@H]4CC[C@]3(C)C4(C)C)n2-c2ccccc2)cc1` [Compound 6a, (E)-3-phenyl-4-p-tolyl-2-((E)-((1R,4R)-1,7,7-trimethylbicyclo[2.2.1]heptan-2-ylidene)hydrazono)-2,3-dihydrothiazole] yielded an IC50 in data set [2] of 60.2 ± 14.4 µM. Further, the CC50 worked out at 135 ± 19.2 µM in data set [3] and 98 ± 11.6 µM in data set [4]. Also, in data set [5], the “SI (CC50/IC50)” value was determined as 2.

On to `CC1(C)[C@@H]2CC[C@@]1(C)/C(=N/N=c1/scc(-c3ccccc3)n1-c1ccccc1)C2` [Compound 8a, (E)-3,4-diphenyl-2-((E)-((1R,4R)-1,7,7-trimethylbicyclo[2.2.1]heptan-2-ylidene)hydrazono)-2,3-dihydrothiazole], for which the IC50 in data set [1] was determined as 18 ± 1.9 µM; in data set [2] it was 29.9 ± 5 µM. Also, the CC50 in data set [3] is 89.6 ± 19.9 µM; in data set [4], 122 ± 14.7 µM. Also, the “SI (CC50/IC50)” value in data set [5] stood at 3; in data set [6] it was 7.

As for `CCNC(=S)N/N=C1\C[C@@H]2CC[C@@]1(C)C2(C)C` [2′c, (E)-N-ethyl-2-((1S,4S)-1,7,7-trimethylbicyclo[2.2.1]heptan-2-ylidene)hydrazinecarbothioamide], the IC50 in data set [1] was found to be 14 ± 2.6 µM; in data set [2] it was 9.1 ± 3.9 µM. Further, the CC50 in data set [3] turned out to be 530 ± 35.4 µM; in data set [4] it was 45 ± 6.6 µM. In addition, the figures for the “SI (CC50/IC50)” value in data set [5] and in data set [6] were 16 and 3, respectively.

In data set [3], `CN[C@H]1CC[C@@H](c2ccc(Cl)c(Cl)c2)c2ccccc21` [Sertraline, reference compound] registered a CC50 of 408 ± 35.9 µM.

Turning to `CC1(C)[C@H]2CC[C@]1(C)/C(=N\N=C1\SCC(=O)N1c1ccccc1)C2` [3′a, (Z)-3-phenyl-2-((E)-((1S,4S)-1,7,7-trimethylbicyclo[2.2.1]heptan-2-ylidene)hydrazono)thiazolidin-4-one], the IC50 in data set [1] was determined as 75 ± 13.7 µM. The compound further showed a CC50 in data set [4] of 290 ± 36.9 µM. Besides, the “SI (CC50/IC50)” value in data set [6] turned out to be 4.

For `C=CCn1c(-c2ccc(Cl)cc2)cs/c1=N/N=C1\C[C@H]2CC[C@]1(C)C2(C)C` [Compound 5b, (E)-3-allyl-4-(4-chlorophenyl)-2-((E)-((1R,4R)-1,7,7-trimethylbicyclo[2.2.1]heptan-2-ylidene)hydrazono)-2,3-dihydrothiazole], the IC50 in data set [1] was 2.5 ± 0.3 µM; in data set [2] it was 30 ± 10 µM. Besides, the CC50 in data set [3] was found to be 80 ± 20 µM; in data set [4], 19 ± 2.8 µM. Moreover, the “SI (CC50/IC50)” value in data set [5] was determined as 3; in data set [6] it was 8.

Consider `CC1(C)S/C(=N/N=C2/C[C@H]3CC[C@]2(C)C3(C)C)N(c2ccccc2)C1=O` [Compound 4a, (Z)-5,5-dimethyl-3-phenyl-2-((E)-((1R,4R)-1,7,7-trimethylbicyclo[2.2.1]heptan-2-ylidene)hydrazono)thiazolidin-4-one], for which the 50% inhibitory concentration (IC50) in data set [1] is 32.5 ± 2.8 µM; in data set [2] it was 94.7 ± 8.1 µM. Moreover, the CC50 in data set [3] was determined as 325 ± 36.1 µM; in data set [4], 270 ± 35.2 µM. In addition, the “SI (CC50/IC50)” value amounted to 3 in data set [5] and 8 in data set [6].

In turn, `CCn1c(-c2ccc(C)cc2)cs/c1=N/N=C1\C[C@H]2CC[C@]1(C)C2(C)C` [Compound 6c, (E)-3-ethyl-4-p-tolyl-2-((E)-((1R,4R)-1,7,7-trimethylbicyclo[2.2.1]heptan-2-ylidene)hydrazono)-2,3-dihydrothiazole] gave a CC50 in data set [4] of 15 ± 2.9 µM.

`C=CCN1C(=O)CS/C1=N/N=C1/C[C@@H]2CC[C@@]1(C)C2(C)C` [3′b, (Z)-3-allyl-2-((E)-((1S,4S)-1,7,7-trimethylbicyclo[2.2.1]heptan-2-ylidene)hydrazono)thiazolidin-4-one]: the IC50 in data set [1] was 66 ± 12.9 µM; in data set [2] it was 45.8 ± 6.5 µM. Besides, the CC50 is 121 ± 6.5 µM in data set [3] and 160 ± 20.8 µM in data set [4]. Also, the “SI (CC50/IC50)” value in data set [5] came out at 3; in data set [6] it was 2.

Take `CCn1c(-c2ccc(Cl)cc2)cs/c1=N/N=C1\C[C@H]2CC[C@]1(C)C2(C)C` [Compound 5c, (E)-4-(4-chlorophenyl)-3-ethyl-2-((E)-((1R,4R)-1,7,7-trimethylbicyclo[2.2.1]heptan-2-ylidene)hydrazono)-2,3-dihydrothiazole]: the IC50 is 12 ± 1.5 µM in data set [1] and 25.8 ± 5.2 µM in data set [2]. Further, the CC50 in data set [3] came out at 51.6 ± 15.5 µM; in data set [4] it was 70 ± 8.9 µM. The “SI (CC50/IC50)” value stood at 2 in data set [5] and 6 in data set [6].

`Cn1c(-c2ccccc2)cs/c1=N/N=C1\C[C@H]2CC[C@]1(C)C2(C)C` [Compound 8d, (E)-3-methyl-4-phenyl-2-((E)-((1R,4R)-1,7,7-trimethylbicyclo[2.2.1]heptan-2-ylidene)hydrazono)-2,3-dihydrothiazole]: the IC50 in data set [1] stood at 1.5 ± 0.2 µM; in data set [2], 26.5 ± 5.9 µM. For the same compound, the CC50 in data set [3] is less than 44.2 µM; in data set [4], 14 ± 2.4 µM. For the same compound, the “SI (CC50/IC50)” value in data set [5] is given as less than 2; in data set [6], 9.

Consider `CCn1c(-c2ccccc2)cs/c1=N/N=C1\C[C@H]2CC[C@]1(C)C2(C)C` [Compound 8c, (E)-3-ethyl-4-phenyl-2-((E)-((1R,4R)-1,7,7-trimethylbicyclo[2.2.1]heptan-2-ylidene)hydrazono)-2,3-dihydrothiazole], for which the figures for the IC50 in data set [1] and in data set [2] were 3 ± 0.5 µM and 28.3 ± 2.8 µM, respectively. Moreover, the values for the CC50 in data set [3] and in data set [4] were less than 42.4 µM and 17 ± 3.3 µM, respectively. Moreover, the “SI (CC50/IC50)” value is on record as less than 2 in data set [5] and 6 in data set [6].

In the case of `Nc1ccn(C[C@@H](CO)OCP(=O)(O)O)c(=O)n1` [Cidofovir, reference compound], the IC50 in data set [1] was 40.1 ± 2.8 µM. In data set [4], this compound had a CC50 of 475 ± 74.9 µM. The “SI (CC50/IC50)” value in data set [6] was 12.

`C=CCN1C(=O)CS/C1=N/N=C1/C[C@H]2CC[C@]1(C)C2(C)C` [Compound 3b, (Z)-3-allyl-2-((E)-((1R,4R)-1,7,7-trimethylbicyclo[2.2.1]heptan-2-ylidene)hydrazono)thiazolidin-4-one]: the values for the IC50 in data set [1] and in data set [2] were 72 ± 12.2 µM and 22.9 ± 0.7 µM, respectively. In addition, the CC50 came to 108 ± 6.5 µM in data set [3] and 99 ± 11.8 µM in data set [4]. Further, the “SI (CC50/IC50)” value in data set [5] worked out at 5.

On to `COc1ccc(-c2cs/c(=N/N=C3\C[C@H]4CC[C@]3(C)C4(C)C)n2C)cc1` [Compound 7d, (E)-4-(4-methoxyphenyl)-3-methyl-2-((E)-((1R,4R)-1,7,7-trimethylbicyclo[2.2.1]heptan-2-ylidene)hydrazono)-2,3-dihydrothiazole], for which the CC50 in data set [3] stood at 97.4 ± 21.6 µM. In data set [5], the concentration for half-maximal inhibition (IC50) is 27.1 ± 8.1 µM and the “SI (CC50/IC50)” value stood at 4.

In turn, `CN1C(=O)CS/C1=N/N=C1/C[C@H]2CC[C@]1(C)C2(C)C` [Compound 3d, (Z)-3-methyl-2-((E)-((1R,4R)-1,7,7-trimethylbicyclo[2.2.1]heptan-2-ylidene)hydrazono)thiazolidin-4-one] returned an IC50 in data set [1] of 100 ± 17.6 µM. The CC50 in data set [4] came out at 310 ± 41.3 µM. For the same compound, the “SI (CC50/IC50)” value in data set [6] was 3.

For `CCn1c(-c2ccc(OC)cc2)cs/c1=N/N=C1\C[C@H]2CC[C@]1(C)C2(C)C` [Compound 7c, (E)-3-ethyl-4-(4-methoxyphenyl)-2-((E)-((1R,4R)-1,7,7-trimethylbicyclo[2.2.1]heptan-2-ylidene)hydrazono)-2,3-dihydrothiazole], half-maximal inhibition in data set [2] (IC50) required 13 ± 5.2 µM. This compound also returned a CC50 in data set [3] of 117 ± 10.4 µM. The “SI (CC50/IC50)” value in data set [5] is given as 9.

Turning to `C=CCn1c(-c2ccc(OC)cc2)cs/c1=N/N=C1\C[C@H]2CC[C@]1(C)C2(C)C` [Compound 7b, (E)-3-allyl-4-(4-methoxyphenyl)-2-((E)-((1R,4R)-1,7,7-trimethylbicyclo[2.2.1]heptan-2-ylidene)hydrazono)-2,3-dihydrothiazole], the IC50 in data set [2] turned out to be 13.9 ± 2.5 µM. The figures for the CC50 in data set [3] and in data set [4] were 37.9 ± 8.3 µM and 200 ± 23.1 µM, respectively. The “SI (CC50/IC50)” value in data set [5] stood at 3.

Turning to `COc1ccc(-c2cs/c(=N/N=C3\C[C@H]4CC[C@]3(C)C4(C)C)n2-c2ccccc2)cc1` [Compound 7a, (E)-4-(4-methoxyphenyl)-3-phenyl-2-((E)-((1R,4R)-1,7,7-trimethylbicyclo[2.2.1]heptan-2-ylidene)hydrazono)-2,3-dihydrothiazole], half-maximal inhibition in data set [2] (IC50) required 127 ± 23.2 µM. In addition, the CC50 is 973 ± 61.6 µM in data set [3] and 232 ± 29.6 µM in data set [4]. Also, the “SI (CC50/IC50)” value in data set [5] was determined as 8.

In the case of `CN1C(=O)CS/C1=N/N=C1/C[C@@H]2CC[C@@]1(C)C2(C)C` [3′d, (Z)-3-methyl-2-((E)-((1S,4S)-1,7,7-trimethylbicyclo[2.2.1]heptan-2-ylidene)hydrazono)thiazolidin-4-one], half-maximal inhibition in data set [2] (IC50) was put at 28.6 ± 10.7 µM. In addition, the values for the CC50 in data set [3] and in data set [4] were 182 ± 14.3 µM and 250 ± 31.4 µM, respectively. Besides, the “SI (CC50/IC50)” value in data set [5] is on record as 6.
